9 compounds from patent US20240246968A1, “SMALL MOLECULE INHIBITORS OF KRAS G12C MUTANT” (Merck Sharp & Dohme LLC, priority 2021, published 2024) can be followed below.

The target in test [1] is Gppcp-bound recombinant K-Ras4B G12C mutant protein (amino acids 1-169, C51S/C80L/C118S) (Homo sapiens, UniProt P01116, C118S/C51S/C80L/G12C). Briefly: KRASG12C binding assay (LC-MS, compound binding rate). The following applies: test compound final concentration 0.5 μM, 25° C., 1 hour. The protocol: As test compounds for the KRASG12C binding assay, the compounds obtained in the “Preparation of Compounds” section were used. Sample solutions each containing a test compound were prepared in the form of a 10 mM DMSO solution.
Gppcp-bound recombinant K-Ras4B G12C mutant protein (amino acids 1-169, C51S/C80L/C118S, SEQ ID NO:1) was diluted with a buffer (1×TBS, 0.1 mM TCEP, 0.25 mM MgCl2, 50 μM Gppcp) to prepare a 50 nM protein solution. K-Ras4B is the major splicing variant of K-Ras. Amino acid sequence of residues 1 to 150 including the compounds' binding region of K-Ras4B is exactly same as that of K-Ras4A, the other splicing variant (Oncotarget. 2016 Jul. 19; 7(29): 46717-46733). A sample solution containing 10 mM test compound was diluted ten-fold with DMSO to make a 1 mM sample solution, and then diluted twenty-fold with DMSO to make a 50 μM sample solution. 1 μL of a 50 μM sample solution was added to 100 μL of a 50 nM protein solution to adjust the final concentration of a test compound to be 0.5 μM in the mixture. The mixtures were stored in an incubator at 25° C. for 1 hour, and 10 μL of a 1×TBS solution containing 2% formic acid was added to stop the reaction, followed by LC-MS measurement. LC-MS measurement was performed using Xevo G2-S Q-Tof manufactured by Waters, and reverse-phase chromatography was performed with a desalting column. A mass spectrum of positive ions was obtained by electrospray. For a mass spectrum, a spectrum of polyvalent ions was collectively converted to a molecular weight by using OpenLynx software by the MaxEnt technique, and a compound binding rate was calculated from the ratio of the signal intensity of a peak that corresponds to the molecular weight of the protein to the signal intensity of a peak that corresponds to the molecular weight of the protein conjugated with the compound.
The binding assay of the test compounds was conducted at a final concentration of 0.5 μM. A binding rate of 80% or more is rated “A”, a binding rate of 60% or more and less than 80% is rated “B”, a binding rate of 40% or more and less than 60% is rated “C”, a binding rate of 20% or more and less than 40% is rated “D”, and a binding rate of less than 20% is rated “E”. N.D.=not determined. Binding rate % is the ratio of KRAS signal intensity at the molecular weight of one molecule adduct to the sum of all the KRAS signal intensity (unbound form and adducts) in mass spectrum. Thus, binding rate 100% means that only the one molecule adduct was observed without any unbound KRAS. The following tables show the results.

The target in test [2] is T1, interaction between recombinant K-Ras4B G12C mutant protein and cRAF RAS-binding domain (cRAF-RBD) (Homo sapiens, UniProt P01116, G12C).
T1 construct: made in house; host or cells: E. coli
Briefly: Inhibitory activity on interaction between KRAS G12C and cRAF (Alpha technology). The class given is biochemical. As to conditions: GMPPNP-bound KRAS G12C incubated with compound at 25° C. for 1 hour, then cRAF-RBD; Alpha signal. Here is the method: Interaction between recombinant K-Ras4B G12C mutant protein (amino acids 1-169, SEQ ID NO:2) and cRAF RAS-binding domain (cRAF-RBD, amino acids 50-132, Jena Biosciences GmbH) was measured using Alpha technology (PerkinElmer Inc.).
Recombinant KRAS G12C protein with an N-terminal His-tag was expressed in E. coli and purified by affinity chromatography. To prepare GTP-bound form and GDP-bound form of KRAS G12C protein. 50 μM KRAS G12C protein was incubated with 1 mM GMPPNP (Guanosine-5′-[(β,γ)-imido]triphosphate. Tetralithium salt)(Jena Bioscience GmbH) and 1 mM GDP, respectively, in a loading buffer (20 mM Tris-HCl (pH 7.5), 50 mM NaCl, 1 mM DTT and 2.5 mM EDTA) for 1 hour on ice. After the incubation, MgCl2 was added to a final concentration of 10 mM, followed by incubation at room temperature for 30 minutes. The mixture was allowed to pass through a NAP-5 column to remove free nucleotides and purified, and the resultant nucleotide-bound KRAS G12C protein was used for compound evaluation.
For the measurement of the inhibitory activity of compounds on interaction between KRAS G12C and cRAF-RBD, GMPPNP-bound KRAS G12C protein was incubated with various concentrations of compound in a reaction buffer (20 mM Tris-HCl (pH 7.5), 100 mM NaCl, 1 mM MgCl2, 1 mM TCEP. 0.1% Tween 20) at 25° C. for 1 hour. After the incubation, recombinant cRAF-RBD and Alpha detection reagents were added and incubated at room temperature for 1.5 hours for binding. Interaction of KRAS G12C and cRAF-RBD was monitored by measuring Alpha signal. Inhibition % was calculated using the signal from the reaction without test compound (DMSO control) as 0% inhibition and the signal from the reaction using GDP-bound KRAS G12C in place of GMPPNP-bound KRAS G12C as 100% inhibition. IC50 values were calculated from dose titration curve using curve fitting by XLfit software (IDBS). The following tables show the results.

The test system of the next test is MIA PaCa-2 cells. Briefly: Growth inhibition activity on KRAS-G12C mutant cell line (MIA PaCa-2), CellTiter-Glo 3D. The test is classed as cell-based, human. The following applies: MIA PaCa-2, 3-day culture with compound. The protocol:
MIA PaCa-2 cells (given by Sumitomo Dainippon Pharma Co., Ltd.), which are a KRAS-G12C mutant human pancreas cancer cell line, were suspended in a 10% fetal bovine serum-containing RPMI1640 medium (manufactured by Fujifilm Wako Pure Chemical Corporation.). The cell suspension was seeded into each well of a 384-well U bottom microplate and cultured in an incubator containing 5% CO2 gas at 37° C. for 1 day. The compounds obtained in the “Preparation of Compounds” section were used as test compounds and were dissolved in DMSO, respectively, and each test compound was diluted with DMSO to give a concentration 500 times the final concentration. The resultant solution of the test compound in DMSO was diluted with the medium used for suspending cells and added to each well of the cell-culture plate to give a DMSO final concentration of 0.2%, followed by culture in an incubator containing 5% CO2 gas at 37° C. for another 3 days. The cell count after 3-day culture in the presence of the test compound was measured using CellTiter-Glo 3D Reagent (manufactured by Promega Corporation). All wells were added with CellTiter-Glo 3D Reagent and mixed for 10 minutes. 30 minutes after mixing, luminescence was measured by a plate reader. The growth inhibition rate was calculated from the following equation, and the concentration of the test compound at which 50/o inhibition was achieved (IC50 (nM)) was determined. The following tables show the results.
[formula] • T: the emission intensity in a well into which a test compound was added. • C: the emission intensity in a well into which a test compound was not added.

pIC50: −log10 of the molar value.

For the compound `COc1cc2c(ncn2C)c(Cl)c1-c1cccn2c(C(=O)c3cc(F)c(NC(=O)/C=C/CNC(C)(C)C)c(F)c3)ccc12` (single isomer, unassigned) [Example 14-2, (E)-4-(tert-butylamino)-N-(4-(8-(4-chloro-6-methoxy-1-methyl-1H-benzo[d]imidazol-5-yl)indolizine-3-carbonyl)-2,6-difluorophenyl)but-2-enamide], in test [1], the binding rate entry is given as “A (A binding rate of 80% or more is rated “A”)”. Further, the pIC50 was 7.25 in test [2] and 7.38 in the test on MIA PaCa-2 cells.

Regarding `CO[C@H]1CC[C@H](NC/C=C/C(=O)Nc2c(F)cc(C(=O)c3ccc4c(-c5c(Cl)cc6c(ncn6C)c5Cl)cccn34)cc2F)CC1` (single isomer, unassigned) [Example 15-1, (E)-N-(4-(8-(4,6-dichloro-1-methyl-1H-benzo[d]imidazol-5-yl)indolizine-3-carbonyl)-2,6-difluorophenyl)-4-(((1r,4r)-4-methoxycyclohexyl)amino)but-2-enamide], the binding rate result in test [1] is recorded as “A (A binding rate of 80% or more is rated “A”)”. Moreover, the pIC50 was 7.38 in test [2] and 7.34 in the test on MIA PaCa-2 cells.

As for `CO[C@H]1CC[C@H](NC/C=C/C(=O)Nc2c(F)cc(C(=O)c3ccc4c(-c5c(Cl)cc6c(ncn6C)c5Cl)cccn34)cc2F)CC1` (single isomer, unassigned) [Example 15-2, (E)-N-(4-(8-(4,6-dichloro-1-methyl-1H-benzo[d]imidazol-5-yl)indolizine-3-carbonyl)-2,6-difluorophenyl)-4-(((1r,4r)-4-methoxycyclohexyl)amino)but-2-enamide], the binding rate entry in test [1] is listed as “A (A binding rate of 80% or more is rated “A”)”. Also, the values for the negative-log IC50 (pIC50) (in test [2]; in the test on MIA PaCa-2 cells) were 6.72 and 6.66, respectively.

As to `Cc1cc2c(nc(C)n2C)c(Cl)c1-c1cccn2c(C(=O)c3cc(F)c(NC(=O)/C=C/CNC(C)(C)C)c(F)c3)ccc12` (single isomer, unassigned) [Example 18-1, (E)-4-(tert-butylamino)-N-(4-(8-(4-chloro-1,2,6-trimethyl-1H-benzo[d]imidazol-5-yl)indolizine-3-carbonyl)-2,6-difluorophenyl)but-2-enamide], the binding rate entry in test [1] is listed as “A (A binding rate of 80% or more is rated “A”)”. For the same compound, the negative logarithm of the IC50 (pIC50) (in test [2]; in the test with MIA PaCa-2 cells) was 7.54 throughout.

As to `Cc1cc2c(nc(C)n2C)c(Cl)c1-c1cccn2c(C(=O)c3cc(F)c(NC(=O)/C=C/CNC(C)(C)C)c(F)c3)ccc12` (single isomer, unassigned) [Example 18-2, (E)-4-(tert-butylamino)-N-(4-(8-(4-chloro-1,2,6-trimethyl-1H-benzo[d]imidazol-5-yl)indolizine-3-carbonyl)-2,6-difluorophenyl)but-2-enamide], in test [1], the binding rate entry is listed as “A (A binding rate of 80% or more is rated “A”)”. Also, the pIC50 in test [2] was 6.66; in the test on MIA PaCa-2 cells, 6.64.

`CO[C@H]1CC[C@H](NC/C=C/C(=O)Nc2c(F)cc(C(=O)c3ccc4c(-c5c(C)cc6c(nc(C)n6C)c5Cl)cccn34)cc2F)CC1` (single isomer, unassigned) [Example 19-1, (E)-N-(4-(8-(4-chloro-1,2,6-trimethyl-1H-benzo[d]imidazol-5-yl)indolizine-3-carbonyl)-2,6-difluorophenyl)-4-(((1r,4r)-4-methoxycyclohexyl)amino)but-2-enamide]: the binding rate result in test [1] is listed as “A (A binding rate of 80% or more is rated “A”)”. For the same compound, the pIC50 in test [2] is 7.70; in the test with MIA PaCa-2 cells, 7.33.

In the case of `CO[C@H]1CC[C@H](NC/C=C/C(=O)Nc2c(F)cc(C(=O)c3ccc4c(-c5c(C)cc6c(nc(C)n6C)c5Cl)cccn34)cc2F)CC1` (single isomer, unassigned) [Example 19-2, (E)-N-(4-(8-(4-chloro-1,2,6-trimethyl-1H-benzo[d]imidazol-5-yl)indolizine-3-carbonyl)-2,6-difluorophenyl)-4-(((1r,4r)-4-methoxycyclohexyl)amino)but-2-enamide], the binding rate result in test [1] is recorded as “A (A binding rate of 80% or more is rated “A”)”. The pIC50 is 6.85 in test [2] and 6.80 in the test on MIA PaCa-2 cells.

Take `Cn1cnc2c(Cl)c(-c3cccn4c(C(=O)c5cc(F)c(NC(=O)/C=C/CNC(C)(C)C)c(F)c5)ccc34)c(Cl)cc21` (single isomer, unassigned) [Example 20-1, (E)-4-(tert-butylamino)-N-(4-(8-(4,6-dichloro-1-methyl-1H-benzo[d]imidazol-5-yl)indolizine-3-carbonyl)-2,6-difluorophenyl)but-2-enamide]: the binding rate entry in test [1] was “A (A binding rate of 80% or more is rated “A”)”. In addition, the negative logarithm of the IC50 (pIC50) (in test [2]; in the test with MIA PaCa-2 cells) was 6.70 in each case.

As for `Cn1cnc2c(Cl)c(-c3cccn4c(C(=O)c5cc(F)c(NC(=O)/C=C/CNC(C)(C)C)c(F)c5)ccc34)c(Cl)cc21` (single isomer, unassigned) [Example 20-2, (E)-4-(tert-butylamino)-N-(4-(8-(4,6-dichloro-1-methyl-1H-benzo[d]imidazol-5-yl)indolizine-3-carbonyl)-2,6-difluorophenyl)but-2-enamide], the binding rate entry in test [1] is reported as “A (A binding rate of 80% or more is rated “A”)”. The pIC50 was 7.48 in test [2] and 7.23 in the test with MIA PaCa-2 cells.

As a reminder, the pIC50 is the IC50 on a negative log10 scale, so that one unit is a factor of ten.
